Source: ChEMBL document CHEMBL1136051, “Synthesis and antiproliferative activity of a new compound containing an alpha-methylene-gamma-lactone group” (J Med Chem, 2002)

Tests used:
HL-60 [1] = assay: Concentration required for endonucleolytic DNA cleavage in HL-60 cells; assay type: functional, cell-based; details: Homo sapiens
HL-60 [2] = assay: In vitro antiproliferative activity against HL-60 myeloid leukemia HL-60 cells in culture; assay type: functional, cell-based; details: Homo sapiens

IC50 (HL-60 [2]): 4 µM
Compound: C=C1C(=O)O[C@H](CCc2ccc(OC)cc2)[C@H]1C
Concentration (HL-60 [1]): 5 µM
